# Laboratory results reported in PMC6349854, “GLUT1 and GLUT3 involvement in anthocyanin gastric transport- Nanobased targeted approach” (Scientific Reports, 2019).
# Assays:
# [1] = tested on: MKN-28 cells; assay: Transepithelial transport of anthocyanins through MKN-28 gastric barrier (apical to basolateral); format: in vitro ADME, human; settings: for paracellular transport efficiency: 4 °C; for paracellular transport efficiency / transport efficiency at 180 minutes: apical pH 5.0, basolateral pH 7.4, anthocyanin 500 µM; for transport efficiency at 180 minutes: 37 °C
# Procedure: (§1) Transepithelial transport experiments were performed using a similar procedure from the one described elsewhere. […] Cells were cultured at 37 °C in an atmosphere of 5% CO2 and the medium was changed every two days.
# (§2) After this treatment, media was removed and cells were washed with Hanks’ medium (HBSS), pH 7.4 at the basolateral side and with HBSS pH 5.0 at the apical side. Anthocyanin solution (500 µM) in HBSS pH 5.0 was added to the apical side of the cells and HBSS containing 2% fetal bovine serum free of polyphenols was added to the basolateral compartment. Transepithelial transport was followed as a function of time, at 4 °C and 37 °C. Samples were taken from the basolateral side and replaced by fresh medium. The samples (150 µL) were acidified with HCl 6 M to a final concentration of 1% and frozen at −18 °C until HPLC analysis.
# [2] = tested on: Mv3glc transport through MKN-28 barrier; assay: Effect of transporter inhibitors on anthocyanin transport through MKN-28 barrier; format: cell-based, human
# Procedure: as §1, §2
SMILES,paracellular transport efficiency [1],transport efficiency at 180 minutes ([1]; 180 min),also measured
"COc1cc(-c2[o+]c3cc(O)cc(O)c3cc2O[C@@H]2O[C@H](CO)[C@@H](O)[C@H](O)[C@H]2O)cc(OC)c1O [Mv3glc, Malvidin-3-O-glucoside]",below 2%,~ 10%,"inhibitory effect on transport when both transporters inhibited simultaneously ([1]; GLUT1 and GLUT3 silenced together (AuNP@GLUT1 + 3), 24 h + 24 h): much more pronounced and additive; relative reduction of transport ([1]; after silencing of GLUT1 or GLUT3 by nanoconjugates 24 h + 24 h, 180 min, versus respective control (AuNP@PEG)): around 25%"
"COc1cc(-c2[o+]c3cc(O)cc(O)c3cc2O[C@@H]2O[C@H](CO)[C@@H](O)[C@H](O)[C@H]2O)ccc1O [Pn3glc, Peonidin-3-O-glucoside]",below 2%,~ 10%,
C=C1[C@@H](C)[C@H]2[C@H](Cc3ccccc3)NC(=O)[C@]23OC(=O)/C=C/[C@H](O)CCC[C@@H](C)C/C=C/[C@H]3[C@@H]1O [cytochalasin B],,,inhibitory effect on anthocyanin transport ([2]; cytochalasin B 50 µM added simultaneously with AuNP@GLUT1 + 3): inhibitory effect was higher
CCCN(CCC)S(=O)(=O)c1ccc(C(=O)O)cc1 [Probenecid],,,"effect on Mv3glc transport ([2]; inhibitor 50 µM, apical pH 5.0, basolateral pH 7.4): no effect"
